Values of other authors as cited in patent US9745365B2, “Anti-influenza B virus hemagglutinin antibodies and methods of use” (priority 2014, dated 2017).

Target: influenza B neuraminidase (Influenza B virus, UniProt P03474)
Conditions: higher

Sequence of influenza B neuraminidase (P03474 whole entry): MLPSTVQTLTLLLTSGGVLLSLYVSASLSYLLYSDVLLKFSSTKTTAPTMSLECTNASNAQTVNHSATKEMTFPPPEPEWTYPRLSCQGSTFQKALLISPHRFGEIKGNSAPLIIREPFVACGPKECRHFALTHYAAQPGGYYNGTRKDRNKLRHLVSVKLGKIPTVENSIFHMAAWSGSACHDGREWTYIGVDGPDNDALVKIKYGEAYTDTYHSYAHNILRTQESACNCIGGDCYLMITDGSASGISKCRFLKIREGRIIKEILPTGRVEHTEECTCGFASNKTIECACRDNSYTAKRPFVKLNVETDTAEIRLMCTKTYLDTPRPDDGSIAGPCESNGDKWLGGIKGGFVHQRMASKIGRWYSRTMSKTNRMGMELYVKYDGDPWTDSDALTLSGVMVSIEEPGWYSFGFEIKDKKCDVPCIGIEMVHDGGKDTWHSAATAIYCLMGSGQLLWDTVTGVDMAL

CCOC(=O)C1=C[C@@H](OC(CC)CC)[C@H](NC(C)=O)[C@@H](N)C1 [oseltamivir phosphate]
IC50 for influenza B neuraminidase compared to that for influenza A neuraminidase: 10 fold
